The values that follow come from ChEMBL document CHEMBL1201862, “PubChem BioAssay data set” (2004).

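Protocol summary: plate cells (96-well), add compound at 5 concentrations, incubate 48 h, interpolate endpoints linearly. GI50 marks 50% less growth.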 Active and inactive are the calls of the source. Cut-off read from the data, not from the text of the source: active = GI50 up to about 1.1 µM and inactive = higher.

Common to all, as to assay: DTP human tumour cell line panel, 48 h
Experiment [1] has as its system 786-0.
Experiment [2] has as its system CCRF-CEM.
Experiment [3] concerns HCT-116.
In experiment [4] the test system is HCT-15.
Experiment [5] deals with HOP-62.
Experiment [6] has as its system HOP-92.
Experiment [7] deals with LXFL 529.
In experiment [8] the test system is NCI-H226.
The test system of experiment [9] is NCI-H460.
Experiment [10] concerns NCI/ADR-RES.
Experiment [11] relates to OVCAR-3.
Experiment [12] concerns OVCAR-4.
Experiment [13] relates to SF-268.
The subject of experiment [14] is SK-MEL-5.
Experiment [15] has as its system SK-OV-3.
The subject of experiment [16] is SR.
The subject of experiment [17] is SW-620.
Experiment [18] concerns T47D.
Experiment [19] deals with TK-10.
For experiment [20], the system named is U-251.

As to `CCCCCCCCCCCC(=O)OC[C@@H](C[As](=O)(O)O)OC(=O)CCCCCCCCCCC`, the GI50 (as a rule, the concentration that inhibits growth by half) in experiment [1] is 13.4 µM (inactive); in experiment [2], 16.2 µM (inactive); in experiment [3], 8.45 µM (inactive); in experiment [4], 9.04 µM; in [5], 9.95 µM (inactive); in experiment [6] it was 1.71 µM (inactive). In addition, the GI50 in experiment [7] is 5.45 µM (inactive); in experiment [8], 16.4 µM (inactive); in [9] it was 3.61 µM (inactive); in [10] it was 17.3 µM (inactive); in [11], 4.19 µM (inactive); in [12], 14.2 µM (inactive). Moreover, the GI50 in [13] is 5.15 µM (inactive); in [14], 1.82 µM (inactive); in experiment [15], 12.4 µM (inactive); in experiment [16] it was 7.36 µM (inactive); in [17], 15 µM (inactive); in experiment [18], 12.6 µM (inactive). In addition, the GI50 in experiment [19] is 11.6 µM (inactive); in experiment [20], 2.14 µM (inactive).

On to `CC(=O)Nc1ccc(-c2nnc(SCC(=O)Nc3ccccc3C)o2)cc1`, for which the GI50 is > 100 µM (inactive) in experiment [1]; 61.7 µM (inactive) in experiment [2]; 15.6 µM (inactive) in experiment [3]; 80.2 µM in [4]; > 100 µM (inactive) in [5]; 39.4 µM (inactive) in experiment [6]. Moreover, the GI50 in experiment [7] was 33.3 µM (inactive); in experiment [8], > 100 µM (inactive); in experiment [9], 96.8 µM (inactive); in [11], 74.5 µM (inactive); in [12], > 100 µM (inactive); in experiment [13] it was > 100 µM (inactive). Moreover, the GI50 in experiment [14] was 93.1 µM (inactive); in experiment [15], > 100 µM (inactive); in experiment [16], 55.5 µM (inactive); in [17] it was > 100 µM (inactive); in [19], > 100 µM (inactive); in experiment [20], 66.7 µM (inactive).

As for `CN(C=O)/C=C/c1cc(O)ccc1O`, the GI50 is 18.5 µM (inactive) in [1]; 18.7 µM (inactive) in [2]; 33 µM (inactive) in experiment [3]; 36.6 µM in experiment [4]; > 43 µM (inactive) in [5]; 19.9 µM (inactive) in experiment [6]. The GI50 in experiment [7] is 18.8 µM (inactive); in [8], 39.7 µM (inactive); in experiment [9], > 60.7 µM (inactive); in [11], 18.2 µM (inactive); in experiment [12], 17.6 µM (inactive); in experiment [13], 25.8 µM (inactive). The GI50 in [14] is 42 µM (inactive); in [15] it was > 86.1 µM (inactive); in experiment [16], 20.5 µM (inactive); in [17], 12.8 µM (inactive); in experiment [19] it was 26.8 µM (inactive); in [20], 39.6 µM (inactive).

For the compound `CC(C)(C)OC(=O)c1cccnc1/C=N/O`, the GI50 in experiment [1] was 67.6 µM (inactive); in [2] it was 67.1 µM (inactive); in experiment [3] it was > 100 µM (inactive); in [4], 51.9 µM; in experiment [5], > 100 µM (inactive); in experiment [6], > 100 µM (inactive). Besides, the GI50 is > 100 µM (inactive) in [7]; > 100 µM (inactive) in [8]; 48.4 µM (inactive) in experiment [9]; 53.1 µM (inactive) in [11]; > 100 µM (inactive) in experiment [12]; > 100 µM (inactive) in experiment [13]. In addition, the GI50 is > 100 µM (inactive) in experiment [14]; > 100 µM (inactive) in experiment [15]; > 100 µM (inactive) in experiment [16]; 58.6 µM (inactive) in [17]; > 100 µM (inactive) in experiment [19]; > 100 µM (inactive) in experiment [20].

With `COC(CC1(OC)OC(=O)C=C1N)OC` (stereo not drawn), the GI50 in experiment [1] is > 100 µM (inactive); in experiment [2], > 100 µM (inactive); in [3], > 100 µM (inactive); in experiment [4], over 100 µM; in experiment [5], > 100 µM (inactive); in experiment [6], > 100 µM (inactive). The GI50 in [7], in [8], in experiment [9], in [11], in [12] and in [13] was > 100 µM (inactive) in each case. Also, the GI50 in experiment [14], in [15], in [16], in experiment [17], in [19] and in [20] was > 100 µM (inactive) in each case.

`O=C(Nc1nc2ccccc2n1Cc1ccccc1)NC12CC3CC(CC(C3)C1)C2`: the GI50 was 24 µM (inactive) in experiment [1]; > 100 µM (inactive) in experiment [2]; 30.4 µM (inactive) in [3]; over 100 µM in experiment [4]; 32.6 µM (inactive) in [5]; 23 µM (inactive) in [6]. For the same compound, the GI50 was 67.8 µM (inactive) in experiment [7]; 51.6 µM (inactive) in [8]; 41 µM (inactive) in [9]; 38.5 µM (inactive) in [11]; 20.7 µM (inactive) in [12]; 14.4 µM (inactive) in experiment [13]. Also, the GI50 in [14] is 54.6 µM (inactive); in experiment [15] it was 27.9 µM (inactive); in experiment [16] it was 80.2 µM (inactive); in [17], > 100 µM (inactive); in experiment [19], 65.5 µM (inactive); in experiment [20], 39 µM (inactive).

As to `O=c1cc(-c2cccnc2)[nH]c2cc3c(cc12)OCO3`, the GI50 in [1] is 33.3 µM (inactive); in experiment [2], 6.65 µM (inactive); in [3], 4.8 µM (inactive); in experiment [4] it was 3.9 µM; in experiment [5], 7.5 µM (inactive); in [6], 13.5 µM (inactive). For the same compound, the GI50 in experiment [7] is 2.3 µM (inactive); in [8], 18.8 µM (inactive); in experiment [9], 10.8 µM (inactive); in experiment [10], 14.8 µM (inactive); in [11], 2.81 µM (inactive); in experiment [12], > 73.3 µM (inactive). Moreover, the GI50 in [13] is 12.9 µM (inactive); in [14], 2.73 µM (inactive); in experiment [15], > 20.9 µM (inactive); in experiment [17], 6.38 µM (inactive); in experiment [18], > 100 µM (inactive); in experiment [19], 41.6 µM (inactive). Besides, the GI50 in experiment [20] was 4.16 µM (inactive).

Turning to `C1CN1c1nc(N2CC2)nc(N2CC2)n1`, the GI50 in experiment [1] is 2.97 µM (inactive); in experiment [2], 0.82 µM (active); in experiment [3] it was 8.55 µM (inactive); in experiment [4], 12.9 µM; in experiment [5] it was 1.97 µM (inactive); in experiment [6], 10 µM (inactive). Also, the GI50 in [7] is 13.9 µM (inactive); in experiment [8], 8.24 µM (inactive); in experiment [9], 0.41 µM (active); in [10], 5.42 µM (inactive); in [11], 16 µM (inactive); in experiment [12] it was 16.2 µM (inactive). The GI50 in [13] is 2.99 µM (inactive); in experiment [14], 6.19 µM (inactive); in [15], 8.87 µM (inactive); in experiment [16], 0.5 µM (active); in experiment [17], 11 µM (inactive); in [19] it was 24 µM (inactive). In experiment [20], the GI50 is 3.92 µM (inactive).
